According to patent publication US20150336943A1, “NOVEL BENZODIOXANE-PIPERIDINE DERIVATIVES AND THEIR THERAPEUTIC APPLICATIONS FOR TREATING NEUROPSYCHIATRIC DISORDERS” (PIERRE FABRE MEDICAMENT, priority 2013, published 2015):

Experiments:
[1] = system: scopolamine-induced amnesia; experiment: Passive avoidance memory test (scopolamine-induced amnesia) in rats; type: in vivo; conditions: for Latency to enter the dark compartment: scopolamine, measured 48 h after training, carrier 24±12
Method: Example 31 was evaluated in rats in a memory test, the passive avoidance test (Chopin P, Briley M. Effects of four non-cholinergic cognitive enhancers in comparison with tacrine and galanthamine on scopolamine-induced amnesia in rats, Psychopharmacology (Berl), 1992; 106:26-30). This test consists of teaching a rat not to enter a dark compartment (its naturally preferred place) where it had previously received an electric shock (0.8 mA). The animal's reticence (the time lapse or “latency” to enter the dark compartment) measured 48 h after its training is considered as an index of its explicit-declarative memory. Latency greatly […] when an amnesic product such as scopolamine is administered shortly after receiving the first shock. A product with promnesic properties opposes the effects of scopolamine.

dopaminergic receptor D2 = target: T1, dopaminergic receptor D2 (Homo sapiens, UniProt P14416); experiment: Inhibition constants (Ki) for dopaminergic receptor D2 in recombinant cells; type: binding; conditions: read-out: pKi D2 (converted)
T1 construct: expressed in transfected cells; host or cells: recombinant human cells (so in the source)
Method: (§1) Compounds of formula 1 have been evaluated in vitro as ligands for dopaminergic and noradrenergic receptors and modulators of the activity of these receptors according to the invention in recombinant human cells expressing the receptors. The inhibition constants (Ki) were measured for dopaminergic receptors D2 and D3, and for adrenergic receptors alpha2A, alpha2B and alpha2C, according to the described methods (Newman-Tancredi A, Assie M B, Martel J C, Cosi C, Slot L B, Palmier C, Rauly-Lestienne I, Colpaert F, Vacher B, Cussac D. F15063, a potential antipsychotic with D2/D3 antagonist, 5-HT 1A agonist and D4 partial agonist properties. I. In vitro receptor affinity and efficacy profile. Br J Pharmacol., 2007, 151:237-252). The intrinsic activity of the products for the D2 receptor was measured (Bruins Slot L A, De Vries L, Newman-Tancredi A, Cussac D. Differential profile of antipsychotics at serotonin 5-HT1A and dopamine D2S receptors coupled to extracellular signal-regulated kinase. Eur J Pharmacol, 2006, 534; 63-70. The results obtained for some of these compounds are presented in the following table.

dopaminergic receptor D3 = target: T2, dopaminergic receptor D3 (Homo sapiens, UniProt P35462); experiment: Inhibition constants (Ki) for dopaminergic receptor D3 in recombinant cells; type: binding; conditions: read-out: pKi D3 (converted)
T2 construct: expressed in transfected cells; host or cells: recombinant human cells (so in the source)
Method: as §1

[2] = target: T3, adrenergic receptor alpha2A (Homo sapiens, UniProt P08913); experiment: Inhibition constants (Ki) for adrenergic receptor alpha2A in recombinant cells; type: binding; conditions: read-out: pKi α2A (converted)
T3 construct: expressed in transfected cells; host or cells: recombinant human cells (so in the source)
T3 sequence (P08913 1-465): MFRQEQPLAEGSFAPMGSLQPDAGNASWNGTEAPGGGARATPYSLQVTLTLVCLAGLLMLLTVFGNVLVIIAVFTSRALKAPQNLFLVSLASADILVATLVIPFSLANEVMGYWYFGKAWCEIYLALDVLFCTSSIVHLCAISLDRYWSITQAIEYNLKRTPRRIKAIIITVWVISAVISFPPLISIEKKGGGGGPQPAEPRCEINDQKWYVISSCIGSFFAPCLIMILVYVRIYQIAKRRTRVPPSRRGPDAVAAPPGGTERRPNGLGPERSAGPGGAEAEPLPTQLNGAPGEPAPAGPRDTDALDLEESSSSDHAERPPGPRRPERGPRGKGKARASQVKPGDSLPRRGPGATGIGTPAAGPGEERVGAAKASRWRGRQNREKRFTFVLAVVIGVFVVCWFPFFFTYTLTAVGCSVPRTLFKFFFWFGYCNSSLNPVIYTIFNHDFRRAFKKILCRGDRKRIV
Method: as §1

[3] = target: T4, adrenergic receptor alpha2B (Homo sapiens, UniProt P18089); experiment: Inhibition constants (Ki) for adrenergic receptor alpha2B in recombinant cells; type: binding; conditions: read-out: pKi α2B (converted)
T4 construct: expressed in transfected cells; host or cells: recombinant human cells (so in the source)
T4 sequence (P18089 1-450): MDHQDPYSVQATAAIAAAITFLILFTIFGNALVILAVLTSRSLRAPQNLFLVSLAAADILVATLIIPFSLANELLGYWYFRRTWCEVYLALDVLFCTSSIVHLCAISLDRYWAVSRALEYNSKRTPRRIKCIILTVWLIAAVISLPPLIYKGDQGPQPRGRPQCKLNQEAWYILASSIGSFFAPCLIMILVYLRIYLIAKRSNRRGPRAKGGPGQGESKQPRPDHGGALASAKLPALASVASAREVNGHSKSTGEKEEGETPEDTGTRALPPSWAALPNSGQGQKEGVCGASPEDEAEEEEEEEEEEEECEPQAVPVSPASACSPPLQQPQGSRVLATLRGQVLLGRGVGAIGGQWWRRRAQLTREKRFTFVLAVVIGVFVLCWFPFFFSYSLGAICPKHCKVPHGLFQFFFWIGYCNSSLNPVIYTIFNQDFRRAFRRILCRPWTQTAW
Method: as §1

[4] = target: T5, adrenergic receptor alpha2C (Homo sapiens, UniProt P18825); experiment: Inhibition constants (Ki) for adrenergic receptor alpha2C in recombinant cells; type: binding; conditions: read-out: pKi α2C (converted)
T5 construct: expressed in transfected cells; host or cells: recombinant human cells (so in the source)
T5 sequence (P18825 1-462): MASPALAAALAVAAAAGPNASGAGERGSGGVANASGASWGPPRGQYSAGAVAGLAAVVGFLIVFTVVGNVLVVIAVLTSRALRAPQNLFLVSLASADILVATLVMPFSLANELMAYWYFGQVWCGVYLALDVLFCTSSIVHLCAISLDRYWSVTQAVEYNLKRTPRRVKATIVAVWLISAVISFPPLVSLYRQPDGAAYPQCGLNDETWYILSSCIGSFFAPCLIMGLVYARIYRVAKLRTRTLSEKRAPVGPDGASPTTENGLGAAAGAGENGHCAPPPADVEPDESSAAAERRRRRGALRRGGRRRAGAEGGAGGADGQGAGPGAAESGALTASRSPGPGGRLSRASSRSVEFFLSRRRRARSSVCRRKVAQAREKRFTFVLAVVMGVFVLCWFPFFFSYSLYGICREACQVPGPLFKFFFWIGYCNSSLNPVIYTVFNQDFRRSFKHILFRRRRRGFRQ
Method: as §1

D2 receptor = target: T6, D2 receptor (Homo sapiens, UniProt P14416); experiment: Intrinsic (agonist) activity at the D2 receptor; type: cell-based
T6 construct: expressed in transfected cells; host or cells: recombinant human cells (so in the source)
Method: The prior art mentions, for benzodioxane-piperidine derivatives bearing an amide, a urea or an imidazolidinone, as non-selective alpha2-antagonists (WO 97/28157, WO 98/02435); some of these products also have a weak affinity for the D2 dopaminergic receptor (T. Imbert, J. Med. Chem, 2000, 43: 3653-3664). […] Activity as a D2 and D3 receptor agonist was determined according to the described methods (Bruins Slot L A, De Vries L, Newman-Tancredi A, Cussac D. Differential profile of antipsychotics at serotonin 5-HT1A and dopamine D2S receptors coupled to extracellular signal-regulated kinase. Eur J Pharmacol, 2006, 534; 63-70; Bruins Slot L A, Palmier C, Tardif S, Cussac D. Action of novel antipsychotics at human dopamine D3 receptors coupled to G protein and ERK1/2 activation. Neuropharmacology, 2007, 53: 232-241) for the following compounds, such as described in WO 97/28157 and WO 98/02435; • 1-benzyl-3-(2-(1-((2,3-dihydrobenzo[b][1,4]dioxin-2-yl)methyl)piperidin-4-yl)ethyl)imidazolidin-2-one • 1-(2-(1-((2,3-dihydrobenzo[b][1,4]dioxin-2-yl)methyl)piperidin-4-yl)ethyl)-3-methylimidazolidin-2-one • 1-(2,6-dichlorophenyl)-3-(2-(1-((2,3-dihydrobenzo[b][1,4]dioxin-2-yl)methyl)piperidin-4-yl)ethyl)imidazolidin-2-one • 1-(2-(1-((2,3-dihydrobenzo[b][1,4]dioxin-2-yl)methyl)piperidin-4-yl)ethyl)-3-(pyridin-4-yl)imidazolidin-2-one • 3-(2-(1-((2,3-dihydrobenzo[b][1,4]dioxin-2-yl)methyl)piperidin-4-yl)ethyl)-1-phenylimidazolidine-2,4-dione • (S)—N-(2-(1-((2,3-dihydrobenzo[b][1,4]dioxin-2-yl)methyl)piperidin-4-yl)ethyl)-[1,1′-biphenyl]-4-carboxamide • (S)—N-(2-(1-((2,3-dihydrobenzo[b][1,4]dioxin-2-yl)methyl)piperidin-4-yl)ethyl)-4-(1H-pyrrol-1-yl)benzamide • (S)—N-(2-(1-((2,3-dihydrobenzo[b][1,4]dioxin-2-yl)methyl)piperidin-4-yl)ethyl)-4-(pyridin-4-yl)benzamide • (S)—N-(2-(1-((2,3-dihydrobenzo[b][1,4]dioxin-2-yl)methyl)piperidin-4-yl)ethyl)-4-(pyridin-3-yl)benzamide • (S)—N-(2-(1-((2,3-dihydrobenzo[b][1,4]dioxin-2-yl)methyl)piperidin-4-yl)ethyl)-9-oxo-9H-fluorene-1-carboxamide.
as §1

[5] = system: MK-801-induced hyperactivity; experiment: MK-801-induced hyperactivity test in mice; type: in vivo; conditions: Mus musculus

T2 sequence (P35462 whole entry): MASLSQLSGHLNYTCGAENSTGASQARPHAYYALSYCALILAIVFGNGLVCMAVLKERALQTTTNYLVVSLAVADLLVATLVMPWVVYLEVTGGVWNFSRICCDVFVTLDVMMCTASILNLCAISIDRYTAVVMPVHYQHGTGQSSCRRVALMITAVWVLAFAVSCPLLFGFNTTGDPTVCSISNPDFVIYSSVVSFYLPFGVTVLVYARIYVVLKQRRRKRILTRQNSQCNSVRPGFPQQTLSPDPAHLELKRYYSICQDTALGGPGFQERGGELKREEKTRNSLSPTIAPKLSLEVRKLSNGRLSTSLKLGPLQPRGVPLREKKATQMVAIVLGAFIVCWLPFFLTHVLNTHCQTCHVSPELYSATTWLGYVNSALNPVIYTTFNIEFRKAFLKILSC
T6 sequence (P14416 1-414 isoform P14416-2): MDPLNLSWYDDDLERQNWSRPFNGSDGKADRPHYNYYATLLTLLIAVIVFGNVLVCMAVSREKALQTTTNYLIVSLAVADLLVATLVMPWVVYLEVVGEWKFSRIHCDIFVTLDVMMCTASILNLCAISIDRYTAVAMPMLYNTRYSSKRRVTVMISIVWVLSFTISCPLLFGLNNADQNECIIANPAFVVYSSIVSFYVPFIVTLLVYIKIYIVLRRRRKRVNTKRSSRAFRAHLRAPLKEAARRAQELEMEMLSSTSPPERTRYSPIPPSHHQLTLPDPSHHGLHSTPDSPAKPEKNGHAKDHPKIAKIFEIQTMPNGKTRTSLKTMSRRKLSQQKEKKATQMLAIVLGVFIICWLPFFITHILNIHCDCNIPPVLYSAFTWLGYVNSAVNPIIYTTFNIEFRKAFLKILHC
T1 sequence (P14416 whole entry): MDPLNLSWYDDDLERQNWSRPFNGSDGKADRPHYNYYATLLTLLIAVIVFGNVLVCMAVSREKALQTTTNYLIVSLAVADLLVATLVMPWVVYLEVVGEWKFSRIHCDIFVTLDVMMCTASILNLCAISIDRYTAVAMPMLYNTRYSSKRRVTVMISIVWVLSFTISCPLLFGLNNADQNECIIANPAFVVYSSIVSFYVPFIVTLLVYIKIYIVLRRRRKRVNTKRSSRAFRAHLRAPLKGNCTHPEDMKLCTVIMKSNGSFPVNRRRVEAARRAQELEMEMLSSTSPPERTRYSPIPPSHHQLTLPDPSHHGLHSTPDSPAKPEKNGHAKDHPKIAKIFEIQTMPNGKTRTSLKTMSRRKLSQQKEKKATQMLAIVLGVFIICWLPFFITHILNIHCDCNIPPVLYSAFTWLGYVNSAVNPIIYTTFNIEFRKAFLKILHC

Ki (dopaminergic receptor D2)	Ki (dopaminergic receptor D3)	Ki [2]	Ki [3]	Ki [4]	I.A.: Intrinsic activity on receptor D2 in vitro (D2 receptor)	SMILES	Latency to enter the dark compartment ([1]; dose 0.63 mg/kg)	Latency to enter the dark compartment ([1]; dose 2.5 mg/kg)	ED50 [5]	Effect on scopolamine-induced amnesia in the passive avoidance test ([1]; doses of 0.16, 0.63, 2.5 and 10 mg/kg)
						O=C1OCCN1CCC1CCN(C[C@H]2COc3ccccc3O2)CC1 [Example 1, (S)-3-(2-(1-((2,3-dihydrobenzo[b][1,4]dioxin-2-yl)methyl)piperidin-4-yl)ethyl)oxazolidin-2-one]	60 ± 21 s	78 ± 22 s		
1.17 nM	0.525 nM	5.13 nM	2.95 nM	1 nM	0 percentage of that of dopamine	Cc1ccc2c(c1)O[C@@H](CN1CCC(CCN3C(=O)OC[C@@H]3Cc3ccccc3)CC1)CO2 [Example 31, (S)-4-benzyl-3-(2-(1-(((S)-7-methyl-2,3-dihydrobenzo[b][1,4]dioxin-2-yl)methyl)piperidin-4-yl)ethyl)oxazolidin-2-one]			2.1 mg/kg	opposed to the effect of scopolamine
1.66 nM	0.347 nM	5.37 nM	4.47 nM	0.617 nM	0 percentage of that of dopamine	O=C1COCCN1CCC1CCN(C[C@H]2COc3c(F)cc(Cl)cc3O2)CC1 [Example 94, (S)-4-(2-(1-((7-chloro-5-fluoro-2,3-dihydrobenzo[b][1,4]dioxin-2-yl)methyl)piperidin-4-yl)ethyl)morpholin-3-one]			0.19 mg/kg	
